The structures appear in SMILES notation.

T1 sequence (P04629 33-796): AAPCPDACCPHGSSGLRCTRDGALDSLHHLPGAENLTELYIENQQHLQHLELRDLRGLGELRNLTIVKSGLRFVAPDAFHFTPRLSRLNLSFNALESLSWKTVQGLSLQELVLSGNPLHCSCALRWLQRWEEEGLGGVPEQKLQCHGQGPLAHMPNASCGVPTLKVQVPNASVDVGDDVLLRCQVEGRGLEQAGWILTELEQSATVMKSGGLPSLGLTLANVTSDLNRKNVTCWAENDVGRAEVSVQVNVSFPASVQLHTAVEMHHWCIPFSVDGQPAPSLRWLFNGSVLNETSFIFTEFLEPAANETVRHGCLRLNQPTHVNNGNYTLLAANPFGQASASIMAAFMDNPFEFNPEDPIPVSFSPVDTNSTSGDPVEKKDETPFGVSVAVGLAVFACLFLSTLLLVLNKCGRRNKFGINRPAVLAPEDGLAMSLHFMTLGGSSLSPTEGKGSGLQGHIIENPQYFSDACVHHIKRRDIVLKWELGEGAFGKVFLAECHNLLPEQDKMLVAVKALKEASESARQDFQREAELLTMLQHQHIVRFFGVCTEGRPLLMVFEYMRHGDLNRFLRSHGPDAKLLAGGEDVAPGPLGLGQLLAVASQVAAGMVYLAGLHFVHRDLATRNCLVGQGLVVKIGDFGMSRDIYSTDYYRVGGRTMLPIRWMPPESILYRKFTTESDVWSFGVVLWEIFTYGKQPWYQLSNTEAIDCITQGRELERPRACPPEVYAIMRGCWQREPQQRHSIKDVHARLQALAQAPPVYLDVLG

One experiment addresses T1, human TrkA (Homo sapiens, UniProt P04629).
T1 construct: purchased Lifetechnologies PV3144
The experiment is described as follows: Test Example 2-2: Human TrkA Inhibition Assay. It counts as biochemical. As to conditions: class symbols, read-out: IC50_nM. How it is done: Seven point five μL per well of human TrkA (PV3144, Lifetechnologies, final concentration: 1 nmol/L) suspended in the assay buffer (100 mmol/L 4-(2-hydroxyethyl)-1-piperazineethanesulfonic acid (HEPES), 10 mmol/L magnesium chloride, 0.003 vol % Brij-35, 0.004 vol % Tween20 and 1 mmol/L dithiothreitol (DTT)) was applied in a 384 well plate and the plate was pre-incubated for 15 min at room temperature with 0.4 μL of each compound (final concentration: […]) dissolved in DMSO. Then, fluorescent substrate (FL-peptide 27, 760424, PerkinElmer, final concentration: 1.5 μmol/L) and ATP (final concentration […]) dissolved in the assay buffer was added in each well. After the incubation of 120 min at 37° C., fifteen μL of termination buffer (100 mmol/L HEPES, 40 mmol/L ethylenediaminetetraacetic acid (EDTA), 10 mmol/L magnesium chloride, 0.003 vol % Brij-35, 0.004 vol % Tween20, 1 mmol/L DTT and 0.16 vol % Coating Reagent 3) was added in each well to stop the enzyme reaction. Fluorescent intensities (FI) of phosphorylated and non-phosphorylated fluorescent substrates were measured by LabChip EZReader II (Caliper LifeSciences, Inc.), and conversion ratio (CR) was calculated by the following formula-1. The CR in the well applied with DMSO alone was used as a negative control and the CR in the well without applying TrkA was used as a positive control. The inhibitory effect of each compound on TrkA phosphorylation was calculated by the following formula-2. CR (%)=(FI of phosphorylated substrate/(FI of phosphorylated substrate+FI of non-phosphorylated substrate))×100 (Formula-1) Phosphorylation inhibition (%)=(1−(CR with compound treatment−CR of positive control)/(CR of negative control−CR of positive control))×100 (Formula-2) Inhibitory effect on TrkA phosphorylation (%)=(1−(CR in compound treated well−CR in positive control)/(CR in negative control−CR in positive control))×100.
The 50/o inhibitory concentration (IC50) was determined by the logistic regression using the inhibition data in 10 points at a range of 2 μmol/L to 0.1 nmol/L or 200 μmol/L to 10 nmol/L).
As to `COCC[C@@H]1C[C@@H](NC(=O)Nc2c(C)c(OCC3CCN(C)CC3)nn2-c2ccccc2)[C@H](c2ccccc2)C1` [Compound I-272], the IC50 was less than 100 nM.

The same experiment, now with this note: human TrkA 1 nmol/L, 120 min at 37° C., read-out: TrkA inhibition IC50.
`COCC(CO)[C@@H]1C[C@@H](NC(=O)Nc2c(C)c(-c3cnn(C)c3)nn2-c2ccccc2)[C@H](c2ccccc2)C1` (some centres unmarked) [Compound I-239]: the IC50 came out at 76 nM. The same measure, in the same setting: the figure for `COCCC1C[C@@H](NC(=O)Nc2c3c(nn2-c2ccccc2)CCC3)[C@H](c2ccccc2)C1` (some centres unmarked) [Compound I-184] is 47 nM; for `COCC[C@@H]1C[C@@H](NC(=O)Nc2c(C)c(C3=CCN(C(C)=O)CC3)nn2-c2ccccc2)[C@H](c2ccccc2)C1` [Compound I-270] it is 0.67 nM.

The experiment is the same for the next values; noted with them: human TrkA inhibition, class symbols A/B/C, read-out: IC50_nM.
`COCCC1C[C@@H](NC(=O)Nc2cc(-c3cnc(C)nc3)nn2C)[C@H](c2ccccc2)C1` (some centres unmarked) [Compound I-219]: the IC50 was more than 1000 nM. As to `CCOCCN1C[C@@H](NC(=O)Nc2c(C)c(-c3cnn(C)c3)nn2-c2ccccc2)[C@H](c2ccc(F)c(F)c2)C1` [Compound I-249], the IC50 was less than 100 nM. Regarding `CCOc1nn(-c2ccccc2)c(NC(=O)N[C@@H]2CC(CCOC)C[C@H]2c2ccccc2)c1C` (some centres unmarked) [Compound I-183], the IC50 was less than 100 nM.

As for `COCCC1C[C@@H](NC(=O)Nc2c(C)c(-c3ccc(C(=O)O)cc3)nn2-c2ccccc2)[C@H](c2ccccc2)C1` (some centres unmarked) [Compound I-207], the IC50 is less than 100 nM. For `COCC[C@H]1C[C@@H](NC(=O)Nc2c(C)c(-c3cnn(C)c3)nn2-c2ccccc2)[C@H](c2ccccc2)N1C` [Compound I-246], the IC50 is less than 100 nM. The same measure, in the same setting: the figure for `COCCC1C[C@H](NC(=O)Nc2c(C)c(-c3cnn(C)c3)nn2-c2ccccc2)[C@@H](c2ccccc2)C1` (some centres unmarked) [Compound I-213] is 100 to 1000 nM; for `COCCC1C[C@@H](NC(=O)Nc2c(C)c(-c3cnn(C)c3)nn2-c2ccccc2)[C@H](c2ccc(F)c(F)c2)N1CCOC` (some centres unmarked) [Compound I-197] it is more than 1000 nM; for `Cc1c(-c2cnn(C)c2)nn(-c2ccccc2)c1NC(=O)N[C@@H]1CN(Cc2csc(Cl)n2)C[C@H]1c1ccc(F)c(F)c1` [Compound I-204] it is less than 100 nM. With `COCCC1C[C@@H](NC(=O)Nc2c(C)c(-c3ccc(C(=O)OC(C)(C)C)cc3)nn2-c2ccccc2)[C@H](c2ccccc2)C1` (some centres unmarked) [Compound I-206], the IC50 is less than 100 nM. In the case of `COCCN1C[C@@H](NC(=O)Nc2c(C)c(-c3cnn(C)c3)nn2-c2ccccc2)[C@H](c2cccc(C=O)c2)C1` (racemic) [Compound I-230], the IC50 lay within 100 to 1000 nM. On the same count and under the same terms, the figure for `COCC[C@@H]1C[C@@H](NC(=O)Nc2c(C)c(-c3ccc(C(=O)O)cc3)nn2-c2ccccc2)[C@H](c2ccc(F)c(F)c2)N1` [Compound I-260] is less than 100 nM.

The target in the next experiment is T1, human TrkA. Put plainly: Test Example 2: Human TrkA Inhibition Assay. It counts as biochemical. As to conditions: Test Example 2; human TrkA 2.5 nmol/L, ATP 500 μmol/L, 90 min at room temperature; read-out: TrkA inhibitory activity IC50. In short, it runs like this:
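Mobility-shift kinase assay: 90 min reaction at room temperature, stopped with EDTA buffer; phosphorylated and non-phosphorylated fluorescent substrate measured, conversion ratio calculated. Inhibition % normalised between DMSO-only wells and no-TrkA wells.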
Regarding `COCC(CN1CC(F)(F)C1)N1C[C@@H](NC(=O)Nc2c(C)c(-c3cnn(C)c3)nn2-c2ccccc2)[C@H](c2ccc(F)c(F)c2)C1` (some centres unmarked) [Compound I-106], the IC50 was 79 nM. Still for that read-out and setting: with `COC1CCC1N1C[C@@H](NC(=O)Nc2c(C)c(-c3cnn(C)c3)nn2-c2ccccc2)[C@H](c2ccc(F)c(F)c2)C1` (some centres unmarked) [Compound I-114] the figure was 120 nM; with `Cc1c(-c2cnn(C)c2)nn(-c2ccccc2)c1NC(=O)N[C@@H]1CN(CC(F)(F)F)C(=O)[C@H]1c1ccccc1` (racemic) [Compound I-44], 700 nM; with `COCCN1C[C@@H](CC(=O)Nc2c(C)c(-c3cnn(C)c3)nn2-c2ccccc2)[C@H](c2ccc(F)c(F)c2)C1` (racemic) [Compound I-15], 143 nM.

The same experiment, now with this note: human TrkA inhibition, Test Example 2; class symbols A/B/C; read-out: IC50_nM.
As to `COCCN1C[C@@H](NC(=O)Nc2c(C)c(-c3cnn(C)c3)nn2-c2ccccc2)[C@H](c2ccc3c(c2)OCCO3)C1` (racemic) [Compound I-128], the IC50 was 100 to 1000 nM.

Regarding `COCCCN1[C@@H]2CC[C@H]1[C@@H](c1ccc(F)c(F)c1)[C@@H]2NC(=O)Nc1c(C)c(-c2cnn(C)c2)nn1-c1ccccc1` (racemic) [Compound I-70], the IC50 is more than 1000 nM. For the compound `Cc1c(-c2cnn(C)c2)nn(-c2ccccc2)c1NC(=O)N[C@@H]1CN(Cc2nccn2C2CC2)C[C@H]1c1ccc(F)c(F)c1` [Compound I-147], the IC50 is more than 1000 nM.

Consider `Cc1c(-c2cnn(C)c2)nn(-c2ccccc2)c1NC(=O)N[C@@H]1CN(C(=O)OC(C)(C)C)C[C@H]1c1ccccc1` (racemic) [Compound I-5], for which the IC50 was more than 1000 nM. The same measure, in the same setting: with `COCCN1C[C@@H](NC(=O)Nc2c(C)c(-c3cnn(C)c3)nn2-c2ccccc2)[C@H](c2ccc(C(=O)O)cc2)C1` (racemic) [Compound I-83] the figure was more than 1000 nM; with `Cc1c(-c2cnn(C)c2)nn(-c2ccccc2)c1NC(=O)N[C@@H]1CN(Cc2ccc(C#N)o2)C[C@H]1c1ccc(F)c(F)c1` [Compound I-89], less than 100 nM. As to `Cc1c(-c2cnn(C)c2)nn(-c2ccccc2)c1NC(=O)N[C@@H]1CN(C2CCCC2)C[C@H]1c1ccc(F)c(F)c1` [Compound I-166], the IC50 is more than 1000 nM. On the same count and under the same terms, with `Cc1c(-c2cnn(C)c2)nn(-c2ccccc2)c1NC(=O)N[C@@H]1CN(c2nnn(C)n2)C[C@H]1c1ccc(F)c(F)c1` [Compound I-151] the figure was more than 1000 nM; with `Cc1c(-c2cnn(C)c2)nn(-c2ccccc2)c1NC(=O)N[C@@H]1CN(C2CCCCC2)C[C@H]1c1ccc(F)c(F)c1` [Compound I-143], more than 1000 nM; with `Cc1c(-c2cnn(C)c2)nn(-c2ccccc2)c1NC(=O)N[C@@H]1CN(CCCS(C)(=O)=O)C[C@H]1c1ccc(F)c(F)c1` [Compound I-64], more than 1000 nM. Same read-out and setting: with `CCN1[C@@H]2CC[C@H]1[C@@H](c1ccc(F)c(F)c1)[C@@H]2NC(=O)Nc1c(C)c(-c2cnn(C)c2)nn1-c1ccccc1` (racemic) [Compound I-69] the figure was more than 1000 nM; with `COCCOCCN1C[C@@H](NC(=O)Nc2c(C)c(-c3cnn(C)c3)nn2-c2ccccc2)[C@H](c2ccc(F)c(F)c2)C1` [Compound I-81], 100 to 1000 nM. On the same count and under the same terms, with `COCC(CN(C)C)N1C[C@@H](NC(=O)Nc2c(C)c(-c3cnn(C)c3)nn2-c2ccccc2)[C@H](c2ccc(F)c(F)c2)C1` (some centres unmarked) [Compound I-115] the figure was 100 to 1000 nM; with `COCC(CCl)N1C[C@@H](NC(=O)Nc2c(C)c(-c3cnn(C)c3)nn2-c2ccccc2)[C@H](c2ccc(F)c(F)c2)C1` (some centres unmarked) [Compound I-99], less than 100 nM; with `COCC(C(N)=O)N1C[C@@H](NC(=O)Nc2c(C)c(-c3cnn(C)c3)nn2-c2ccccc2)[C@H](c2ccc(F)c(F)c2)C1` (some centres unmarked) [Compound I-116], 100 to 1000 nM. `Cc1c(-c2cnn(C)c2)nn(-c2ccccc2)c1NC(=O)N[C@@H]1CN(Cc2cscn2)C[C@H]1c1ccc(F)c(F)c1` [Compound I-90]: the IC50 is less than 100 nM. Regarding `COCC(CNOC)N1C[C@@H](NC(=O)Nc2c(C)c(-c3cnn(C)c3)nn2-c2ccccc2)[C@H](c2ccc(F)c(F)c2)C1` (some centres unmarked) [Compound I-113], the IC50 was 100 to 1000 nM. Same read-out and setting: the figure for `COCCN1C[C@@H](NC(=O)Nc2c(C)c(-c3cnn(C)c3)nn2-c2ccccc2)[C@H](c2cccc(C3=CCCCC3)c2)C1` (racemic) [Compound I-58] is more than 1000 nM; for `Cc1c(-c2cnn(C)c2)nn(-c2ccccc2)c1NC(=O)N[C@@H]1CN(CCCc2ccccc2)C[C@H]1c1ccc(F)c(F)c1` [I 63] it is more than 1000 nM.

On to `COCC(CNO)N1C[C@@H](NC(=O)Nc2c(C)c(-c3cnn(C)c3)nn2-c2ccccc2)[C@H](c2ccc(F)c(F)c2)C1` (some centres unmarked) [Compound I-92], for which the IC50 is less than 100 nM. For the compound `COCC1(O)C[C@@H](NC(=O)Nc2c(C)c(-c3cnn(C)c3)nn2-c2ccccc2)[C@H](c2ccccc2)C1` (some centres unmarked) [Compound I-164], the IC50 was more than 1000 nM. The same measure, in the same setting: with `COCCN1C[C@@H](NC(=O)Nc2c(C)c(-c3cnn(C)c3)nn2-c2ccccc2)[C@H](c2cccc(C(=O)O)c2)C1` (racemic) [Compound I-82] the figure was more than 1000 nM.

`CNCC(COC)N1C[C@@H](NC(=O)Nc2c(C)c(-c3cnn(C)c3)nn2-c2ccccc2)[C@H](c2ccc(F)c(F)c2)C1` (some centres unmarked) [Compound I-138]: the IC50 was in the range of 100 to 1000 nM.

For `COCCN1C[C@@H](NC(=O)Nc2c(C)c(-c3cnn(C)c3)nn2-c2ccccc2)[C@H](c2ccc3cccnc3c2)C1` (racemic) [Compound I-150], the IC50 is more than 1000 nM. On the same count and under the same terms, with `Cc1c(-c2cnn(C)c2)nn(-c2ccccc2)c1NC(=O)N[C@@H]1C[N+](C)(C)C[C@H]1c1ccc(F)c(F)c1` [Compound I-25] the figure was more than 1000 nM.

The values are drawn from patent US10532985B2, “Heterocycle and carbocycle derivatives having TRKA inhibitory activity” (Shionogi & Co., Ltd., priority 2014, dated 2020).
